Entries after “also recorded” stand apart in the source; their conditions may differ.

Results on one compound are retold here after patent US20160250285A1, “NEUROPROTECTIVE PEPTIDES” (priority 2013, published 2016).

Test [1] relates to primary cortical neuronal cultures. As to the method:
Establishment of cortical cultures was as previously described (Meloni et al. 2001). Briefly, cortical tissue from E18-E19 Sprague-Dawley rats was dissociated in Dulbecco's modified Eagle medium (DMEM; Invitrogen, Australia) supplemented with 1.3 mM L-cysteine, 0.9 mM NaHCOa, 10 units/ml papain (Sigma, USA) and 50 units/ml DNase (Sigma) and washed in cold DMEM/10% horse serum. Neurons were resuspended in Neurobasal (Invitrogen) containing 2% B27 supplement (B27; Invitrogen). Before seeding, 96-well sized glass wells (6 mm diameter, ProTech, Australia) or 96-well plastic plates (ProSciTech, Australia) were coated with poly-D-lysine overnight ([…]: 50 mg/mL; 70-150 K, Sigma). Excess poly-D-lysine solution was then removed and replaced with Neurobasal (containing 2% B27; 4% fetal bovine serum; 1% horse serum; […] glutamate; […] 2-mercaptoethanol; and […]). Neurons were plated to obtain ≈10,000 viable neurons for each well on day in vitro 11-12. Neuronal cultures were maintained in a CO2 incubator (5% CO2, 95% air balance, 98% humidity) at 37° C. On day in vitro 4 one third of the culture medium was removed and replaced with fresh Neurobasal/2% B27 containing the mitotic inhibitor, cytosine arabinofuraNOside (1 mM final concentration; Sigma). On day in vitro 8 one half of the culture medium was replaced with Neurobasal/2% B27. Cultures were used on day in vitro 11 or 12 after which time they routinely consist of >97% neurons and 1-3% astrocytes (Meloni et al. 2001).
Peptides were added to culture wells (96-well plate format) 15 minutes prior to glutamic acid or kainic acid exposure by removing media and adding 50 μl of Neurobasal/2% 327 containing CPPs, control peptides or MK801/CNQX. To induce excitotoxicity, 50 μl of Neurobasal/2% B27 containing glutamic acid (200 μM) or kainic acid (400 μM) or NMDA (200 μM) was added to the culture wells (100 μM glutamic acid, 200 μM kainic acid and NMDA 100 μM final concentration). Cultures were incubated at 37° C. in the CO2 incubator for 5 minutes for glutamic acid, 45 minutes for kainic acid and 10 minutes for NMDA exposure, after which time the media was replaced with 100 μl of 50% Neurobasal/2% N2 supplement (Invitrogen) and 50% balanced salt solution (BSS; see below). Cultures were incubated for a further 24 hours at 37° C. in the CO2 incubator. The untreated controls with or without glutamic acid or kainic acid treatment received the same wash steps and media additions.
Twenty-four hours after insult, neuronal cultures were examined by light microscopy for qualitative assessment of neuronal cell viability. Neuronal viability was quantitatively measured by 3-(4,5,dimethyliazol-2-yl)-5-(3-carboxymethoxy-phenyl)-2-(4-sulfophenyl)-2H-tetrazolium salt (MTS) assay (Promega, Australia). The MTS assay measures the cellular conversion of the tetrazolium salt to a water-soluble brown formazan salt, which is detected spectrophotometrically at 490 nm. MTS absorbance data were converted to reflect proportional cell viability relative to both the untreated and treated controls, with the untreated control taken as 100% viability, and presented as mean±SEM. For studies using astrocytes, bEND3, and SH-Y5Y cells, raw MTS data was used to generate graphs. Viability data was analysed by ANOVA, followed by post-hoc Fischer's PLSD test, with P<0.05 values considered statistically significant. Four- to six wells were used in all assays.

Test [2] relates to brain endothelial cells (bEND3 cells). Put plainly: In vitro ischemia/OGD model, bEND3 cells. Conditions: peptide during/after ischemia (FIG. 3c) or 15 min before OGD (FIGS. 23, 24). The class given is cell-based.
Protocol: A brain endothelial cell line (bEND3) and a neuroblastoma cell line (SH-SY5Y) were also used for some experiments. bEND3 and SH-SY5Y cells were cultured using standard techniques in DMEM plus 5 or 15% foetal calf serum.
The in vitro ischemia model was also used for bEND3 cells, SH-SY5Y cells, and astrocytes. For bEND3 cells anaerobic incubation was extended to 2-3 hours and upon removal from the anaerobic incubator, 60 μl of DMEM/2% FCS was added to wells. […] Upon removal from the anaerobic incubator, 60 μl of DMEM/2% FCS was added to wells.

By IC50 is commonly meant the concentration needed to halve the response being measured. On to `N=C(N)NCCC[C@H](NC(=O)[C@H](CCCNC(=N)N)NC(=O)[C@H](CCCNC(=N)N)NC(=O)[C@H](CCCNC(=N)N)NC(=O)[C@H](CCCNC(=N)N)NC(=O)[C@H](CCCNC(=N)N)NC(=O)[C@H](CCCNC(=N)N)NC(=O)[C@H](CCCNC(=N)N)NC(=O)[C@@H](N)CCCNC(=N)N)C(=O)O` [Peptide R9], for which, in test [1] (FIG. 2), the neuroprotection entry was “neuroprotective”. The “fold more potent than TAT-D, based on IC50 values” in test [1] (kainic acid model) was found to be 7 fold. The concentration for half-maximal inhibition (IC50) in test [1] (read-out: IC50: Kainic acid model, Table 3, from FIG. 2, 200 μM kainic acid 45 min, viability 24 h, MTS) worked out at 810 nM. The “protection of bEND3 cells (cell death / viability after in vitro ischemia/OGD)” value in test [2] was “reduced; also recorded: able to protect”.
